The values that follow are results of earlier work, collected in patent US7645459B2, “Dosage forms of bisphosphonates” (The Procter & Gamble Company, priority 2004, dated 2010).

The conditions of the data set: administration within 30 minutes of a meal.

`O=P(O)(O)C(O)(Cc1cccnc1)P(=O)(O)O` [risedronate, 1-hydroxy-2-(3-pyridinyl)-ethylidene-1,1-bisphosphonic acid]: the “reduction of the amount absorbed compared to administration in the fasting state” value is reported as 50%.
